Measured values from ChEMBL document CHEMBL3885881, “DrugMatrix”.
Several values for one entry are separate records, joined by “and”; a condition that tells them apart may be missing. Equal values may be shown once.

Species: Rattus norvegicus
Assay: DrugMatrix - Regimen: Daily Repeat
Type: toxicity, organism-based, Sprague-Dawley
Design: regimen Daily Repeat, gender Male, age 6-8 weeks
Settings: in vivo, po, route oral GAVAGE, vehicle 100 % WATER; for ABSOLUTE BASOPHIL / ABSOLUTE LYMPHOCYTE / ABSOLUTE MONOCYTE / ABSOLUTE SEGMENTED NEUTROPHIL / BASOPHIL / EOSINOPHIL / ERYTHROCYTE COUNT / HEMATOCRIT / HEMOGLOBIN / LEUKOCYTE COUNT / LYMPHOCYTE / MEAN CORPUSCULAR HEMOGLOBIN / MEAN CORPUSCULAR HEMOGLOBIN CONCENTRATION / MEAN CORPUSCULAR VOLUME / MONOCYTE / NEUTROPHIL / NUCLEATED RED BLOOD CELLS / PLATELET COUNT / ABSOLUTE EOSINOPHIL: tissue Blood; for ALANINE AMINOTRANSFERASE / ALBUMIN / ALKALINE PHOSPHATASE / ASPARTATE AMINOTRANSFERASE / BLOOD UREA NITROGEN / CARBON DIOXIDE / CHLORIDE / CHOLESTEROL / CREATINE PHOSPHOKINASE / CREATININE / GLUCOSE / LACTATE DEHYDROGENASE / LIPASE / PHOSPHORUS / POTASSIUM / SODIUM / TOTAL BILIRUBIN / TOTAL PROTEIN / URIC ACID: tissue Plasma
[1] = 0 mg/kg, 72 h, dose level Control, time 3 day
[2] = 0 mg/kg, 120 h, dose level Control, time 5 day
[3] = 4.5 mg/kg, 72 h, dose level Low, time 3 day

COc1ccc2c(c1)c(CC(=O)O)c(C)n2C(=O)c1ccc(Cl)cc1 [INDOMETHACIN]
ABSOLUTE BASOPHIL [1]: 0 CELLS/uL
ABSOLUTE LYMPHOCYTE [1]: 6747 CELLS/uL and 14108.83 CELLS/uL
ABSOLUTE MONOCYTE [1]: 73 CELLS/uL and 81 CELLS/uL
ABSOLUTE SEGMENTED NEUTROPHIL [1]: 480 CELLS/uL and 818.67 CELLS/uL
BASOPHIL [1]: 0%
EOSINOPHIL [1]: 0% and 0.67%
ERYTHROCYTE COUNT [1]: 5.14 x10E6/uL and 5.56 x10E6/uL
HEMATOCRIT [1]: 32.27% and 34.5%
HEMOGLOBIN [1]: 12.53 G/DL and 13.45 G/DL
LEUKOCYTE COUNT [1]: 7.3 x10E3/uL and 15.1 x10E3/uL
LYMPHOCYTE [1]: 93%
MEAN CORPUSCULAR HEMOGLOBIN [1]: 24.37 pg and 24.2 pg
MEAN CORPUSCULAR HEMOGLOBIN CONCENTRATION [1]: 38.87 G/DL and 38.98 G/DL
MEAN CORPUSCULAR VOLUME [1]: 62.7 fL and 62.07 fL
MONOCYTE [1]: 1% and 0.5%
NEUTROPHIL [1]: 6% and 5.83%
NUCLEATED RED BLOOD CELLS [1]: 0 /100WBC
PLATELET COUNT [1]: 1023 x10E3/uL and 1193.33 x10E3/uL
ALANINE AMINOTRANSFERASE [1]: 49.33 u/L and 60.33 u/L
ALBUMIN [1]: 3.73 G/DL and 4 G/DL
ALKALINE PHOSPHATASE [1]: 331 u/L and 334.83 u/L
ASPARTATE AMINOTRANSFERASE [1]: 79.67 u/L and 74.5 u/L
BLOOD UREA NITROGEN [1]: 15.33 mg/dL and 13.5 mg/dL
CARBON DIOXIDE [1]: 30.33 mmol/L
CHLORIDE [1]: 100.67 MEQ/L and 98.33 MEQ/L
CHOLESTEROL [1]: 77 mg/dL and 71.17 mg/dL
CREATINE PHOSPHOKINASE [1]: 319.67 u/L and 212 u/L
CREATININE [1]: 0.11 mg/dL and 0.21 mg/dL
GLUCOSE [1]: 169 mg/dL and 173.17 mg/dL
LACTATE DEHYDROGENASE [1]: 113.33 u/L and 101.5 u/L
LIPASE [1]: 10.33 u/L and 24.17 u/L
PHOSPHORUS [1]: 11.97 mg/dL and 10.87 mg/dL
POTASSIUM [1]: 5.06 MEQ/L and 6.06 MEQ/L
SODIUM [1]: 144.13 MEQ/L and 140.58 MEQ/L
TOTAL BILIRUBIN [1]: 0.2 mg/dL and 0.17 mg/dL
TOTAL PROTEIN [1]: 5.8 G/DL and 5.9 G/DL
URIC ACID [1]: 0.57 mg/dL and 1.23 mg/dL
ABSOLUTE BASOPHIL [2]: 0 CELLS/uL
ABSOLUTE EOSINOPHIL [2]: 31.33 CELLS/uL and 34.5 CELLS/uL
ABSOLUTE LYMPHOCYTE [2]: 7806.33 CELLS/uL and 8181 CELLS/uL
ABSOLUTE MONOCYTE [2]: 202 CELLS/uL and 82.67 CELLS/uL
ABSOLUTE SEGMENTED NEUTROPHIL [2]: 927 CELLS/uL and 435.17 CELLS/uL
BASOPHIL [2]: 0%
EOSINOPHIL [2]: 0.33% and 0.5%
ERYTHROCYTE COUNT [2]: 4.96 x10E6/uL and 5.31 x10E6/uL
HEMATOCRIT [2]: 32.37% and 33.83%
HEMOGLOBIN [2]: 12.53 G/DL and 13.37 G/DL
LEUKOCYTE COUNT [2]: 8.97 x10E3/uL and 8.73 x10E3/uL
LYMPHOCYTE [2]: 87.33% and 93.5%
MEAN CORPUSCULAR HEMOGLOBIN [2]: 25.27 pg and 25.2 pg
MEAN CORPUSCULAR HEMOGLOBIN CONCENTRATION [2]: 38.7 G/DL and 39.53 G/DL
MEAN CORPUSCULAR VOLUME [2]: 65.23 fL and 63.73 fL
MONOCYTE [2]: 2.33% and 1%
NEUTROPHIL [2]: 10% and 5%
NUCLEATED RED BLOOD CELLS [2]: 0 /100WBC
PLATELET COUNT [2]: 1189.33 x10E3/uL and 1057.33 x10E3/uL
ALANINE AMINOTRANSFERASE [2]: 53.33 u/L and 54.33 u/L
ALBUMIN [2]: 3.97 G/DL and 4.07 G/DL
ALKALINE PHOSPHATASE [2]: 326 u/L and 308.67 u/L
ASPARTATE AMINOTRANSFERASE [2]: 59.67 u/L and 83.17 u/L
BLOOD UREA NITROGEN [2]: 15 mg/dL and 14 mg/dL
CARBON DIOXIDE [2]: 33.67 mmol/L and 34 mmol/L
CHLORIDE [2]: 105 MEQ/L and 98 MEQ/L
CHOLESTEROL [2]: 73 mg/dL and 71.33 mg/dL
CREATINE PHOSPHOKINASE [2]: 208.33 u/L and 266.5 u/L
CREATININE [2]: 0.1 mg/dL and 0.27 mg/dL
GLUCOSE [2]: 153.33 mg/dL and 133 mg/dL
LACTATE DEHYDROGENASE [2]: 62 u/L and 127 u/L
LIPASE [2]: 10.33 u/L and 11.67 u/L
PHOSPHORUS [2]: 10.93 mg/dL and 10.6 mg/dL
POTASSIUM [2]: 5.5 MEQ/L and 6.17 MEQ/L
SODIUM [2]: 147.27 MEQ/L and 142.68 MEQ/L
TOTAL BILIRUBIN [2]: 0.17 mg/dL and 0.15 mg/dL
TOTAL PROTEIN [2]: 5.87 G/DL and 6.03 G/DL
URIC ACID [2]: 0.4 mg/dL and 0.75 mg/dL
ABSOLUTE BASOPHIL [3]: 0 CELLS/uL
ABSOLUTE EOSINOPHIL [3]: 0 CELLS/uL
ABSOLUTE LYMPHOCYTE [3]: 7564.67 CELLS/uL
ABSOLUTE MONOCYTE [3]: 197.67 CELLS/uL
ABSOLUTE SEGMENTED NEUTROPHIL [3]: 937.67 CELLS/uL
BASOPHIL [3]: 0%
EOSINOPHIL [3]: 0%
ERYTHROCYTE COUNT [3]: 5.16 x10E6/uL
